This passage reports IC50, EC50 and AC50 results from ChEMBL document CHEMBL1201862, “PubChem BioAssay data set” (2004).

For data set [1], the target named is T1, Intestinal-type alkaline phosphatase (Mus musculus, UniProt P24822). The experiment in a line: PubChem AID 488874. The format is functional.
The target in data set [2] is T2, Intestinal-type alkaline phosphatase (Homo sapiens, UniProt P09923). The experiment in a line: human IAP inhibitors, dose response, biochemical, luminescent, uHTS hits, set 2 (AID 488793). The data set is classed as functional.
Data set [3] deals with T2, Intestinal-type alkaline phosphatase. Description: Dose Response confirmation of uHTS hits from a small molecule inhibitors of human intestinal alkaline phosphatase via a luminescent assay. [Related pubchem assays (depositor defined):AID2544, AID2574]. The data set is classed as functional.
The target in data set [4] is T3, Alkaline phosphatase, tissue-nonspecific isozyme (Homo sapiens, UniProt P05186).
T3 sequence (P05186 whole entry): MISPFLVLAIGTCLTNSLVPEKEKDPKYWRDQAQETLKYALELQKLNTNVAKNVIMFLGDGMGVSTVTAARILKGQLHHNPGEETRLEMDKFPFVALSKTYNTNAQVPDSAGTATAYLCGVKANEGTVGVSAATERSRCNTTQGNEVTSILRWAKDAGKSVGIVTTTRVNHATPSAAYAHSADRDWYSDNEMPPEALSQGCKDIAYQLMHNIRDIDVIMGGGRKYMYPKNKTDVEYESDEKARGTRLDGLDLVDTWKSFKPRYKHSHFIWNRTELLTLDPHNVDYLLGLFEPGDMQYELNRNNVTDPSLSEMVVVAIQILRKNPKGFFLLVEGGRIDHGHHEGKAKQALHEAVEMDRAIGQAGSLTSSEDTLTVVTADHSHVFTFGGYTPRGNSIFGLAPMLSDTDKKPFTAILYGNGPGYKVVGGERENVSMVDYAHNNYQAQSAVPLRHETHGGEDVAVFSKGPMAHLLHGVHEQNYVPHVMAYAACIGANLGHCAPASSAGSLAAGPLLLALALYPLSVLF
Description: inhibition of tissue-nonspecific alkaline phosphatase – biochemical, dose response (AID 488882). The format is functional.

A short description of data set [5]: human group III sPLA2 inhibitors, dose response, biochemical, QFRET, IC50 (AID 743457).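 Further: green fluorescence rise as the enzyme cleaves BODIPY PC-A2 in liposomes; potency for inhibition of the enzyme.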
For data set [6], the target named is T4, Heat shock factor protein 1 (Mus musculus, UniProt P38532).
T4 sequence (P38532 whole entry): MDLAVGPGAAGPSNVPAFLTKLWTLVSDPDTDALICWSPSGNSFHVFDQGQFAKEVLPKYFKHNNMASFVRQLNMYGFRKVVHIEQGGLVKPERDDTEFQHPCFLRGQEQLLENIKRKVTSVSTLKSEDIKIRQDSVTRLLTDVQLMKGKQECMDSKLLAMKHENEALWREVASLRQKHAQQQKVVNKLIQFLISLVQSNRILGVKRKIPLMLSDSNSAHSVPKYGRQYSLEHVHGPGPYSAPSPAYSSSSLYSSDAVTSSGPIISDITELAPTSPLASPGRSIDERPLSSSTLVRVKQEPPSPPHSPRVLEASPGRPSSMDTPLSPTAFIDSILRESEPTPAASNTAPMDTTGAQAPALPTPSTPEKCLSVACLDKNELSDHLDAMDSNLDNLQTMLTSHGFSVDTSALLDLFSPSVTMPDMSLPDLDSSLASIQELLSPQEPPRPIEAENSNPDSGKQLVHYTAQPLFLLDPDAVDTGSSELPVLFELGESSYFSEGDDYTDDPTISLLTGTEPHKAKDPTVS
Description: inhibition of MG132-induced HSE-luciferase signal, confirmation, cell-based, NIH3T3, luminescence, dose retest (AID 2382).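 Further: NIH3T3 fibroblasts with HSF1-driven luciferase reporter stressed by proteasome inhibitor MG132; luminescence from HSF1-driven luciferase expression after 8 hours of MG132 stress.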 The data set is classed as functional.

The target of data set [7] is Cytochrome P450 2C19 (Homo sapiens, UniProt P33261). Description: Cytochrome panel assay with activity outcomes. Panel member name: p450-cyp2c19 Compounds with AC50 equal or less than 10 uM are considered active. The data set is classed as functional. The conditions noted are these: read-out: AC50.
For data set [8], the target named is Cytochrome P450 3A4 (Homo sapiens, UniProt P08684).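 Further: CYP3A4 tested as one member of a cytochrome P450 panel screen.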
Data set [9] concerns the target Cytochrome P450 2D6 (Homo sapiens, UniProt P10635).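 Further: CYP2D6 member of a cytochrome P450 panel assay.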
In data set [10] the target is Voltage-dependent T-type calcium channel subunit alpha-1H (Homo sapiens, UniProt O95180). The experiment in a line: Cav3.2 T-type channel blockers, cell-based, SynthLib3 library, HEK293 Cav3.2, fluorescence (AID 493041). The format is functional.
The target of data set [11] is T1, Intestinal-type alkaline phosphatase. The experiment in a line: PubChem AID 488875. The data set is classed as functional.
Data set [12] addresses T2, Intestinal-type alkaline phosphatase. Description: human intestinal alkaline phosphatase activators, dose response, biochemical, luminescence, uHTS hits (AID 463120). The format is functional.
Data set [13] shares this target. The experiment in a line: human IAP activators, dose response, biochemical, luminescent, uHTS hits, set 2 (AID 488817).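 Further: potency of activators that raise enzyme activity.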 The format is functional.
Data set [14] concerns the target T3, Alkaline phosphatase, tissue-nonspecific isozyme. Description: TNAP enzyme activators, dose response, selectivity assay for human IAP activator project, biochemical, TNAP isozyme, human IAP uHTS hits (AID 488886).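 Further: potency of compounds raising TNAP activity as a selectivity check on IAP activators.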 The data set is classed as functional.
Data set [15] in a line: cells. The format is functional, cell-based.
In data set [16] the target is T5, Nuclear receptor subfamily 0 group B member 1 (Homo sapiens, UniProt P51843).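 Further: HEK293T cells transfected with SF-1 and DAX-1 plus StAR promoter luciferase reporter.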
T5 sequence (P51843 whole entry): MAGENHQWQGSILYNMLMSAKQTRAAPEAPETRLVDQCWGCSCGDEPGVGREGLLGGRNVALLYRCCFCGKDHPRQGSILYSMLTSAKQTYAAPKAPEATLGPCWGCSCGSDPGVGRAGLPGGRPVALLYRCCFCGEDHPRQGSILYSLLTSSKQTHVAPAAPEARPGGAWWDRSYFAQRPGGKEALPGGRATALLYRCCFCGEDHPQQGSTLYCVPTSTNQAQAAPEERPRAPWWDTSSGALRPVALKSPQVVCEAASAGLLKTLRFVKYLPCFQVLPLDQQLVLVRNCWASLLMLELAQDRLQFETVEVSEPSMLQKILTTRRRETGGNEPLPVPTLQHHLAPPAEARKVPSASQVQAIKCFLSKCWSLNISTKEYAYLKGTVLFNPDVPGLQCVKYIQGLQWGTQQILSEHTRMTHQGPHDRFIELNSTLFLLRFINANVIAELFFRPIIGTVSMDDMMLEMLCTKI
The format is functional, cell-based.

For data set [17], the target named is Lysine-specific demethylase 4A (Homo sapiens, UniProt O75164). Description: JMJD2A histone demethylase inhibitors, dose response, selectivity assay for GASC-1 inhibitor project, biochemical, DELFIA europium, cherry-picked samples (AID 488840).

Active and inactive are the calls of the source. Some results are limits rather than exact numbers.

T2 sequence (P09923 whole entry): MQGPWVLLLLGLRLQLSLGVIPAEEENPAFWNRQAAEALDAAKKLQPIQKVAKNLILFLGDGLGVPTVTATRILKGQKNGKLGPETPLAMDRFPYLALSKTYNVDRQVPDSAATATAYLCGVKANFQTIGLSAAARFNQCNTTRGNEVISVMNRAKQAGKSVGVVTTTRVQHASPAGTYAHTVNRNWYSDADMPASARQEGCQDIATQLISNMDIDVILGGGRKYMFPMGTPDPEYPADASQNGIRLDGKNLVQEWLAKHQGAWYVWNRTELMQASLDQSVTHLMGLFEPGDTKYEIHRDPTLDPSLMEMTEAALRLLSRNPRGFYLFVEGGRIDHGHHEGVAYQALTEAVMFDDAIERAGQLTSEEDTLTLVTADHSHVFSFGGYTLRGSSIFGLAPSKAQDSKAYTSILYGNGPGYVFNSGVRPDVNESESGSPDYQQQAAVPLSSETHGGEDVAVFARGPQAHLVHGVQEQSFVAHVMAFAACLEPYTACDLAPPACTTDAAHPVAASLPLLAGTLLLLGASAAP
T1 sequence (P24822 whole entry): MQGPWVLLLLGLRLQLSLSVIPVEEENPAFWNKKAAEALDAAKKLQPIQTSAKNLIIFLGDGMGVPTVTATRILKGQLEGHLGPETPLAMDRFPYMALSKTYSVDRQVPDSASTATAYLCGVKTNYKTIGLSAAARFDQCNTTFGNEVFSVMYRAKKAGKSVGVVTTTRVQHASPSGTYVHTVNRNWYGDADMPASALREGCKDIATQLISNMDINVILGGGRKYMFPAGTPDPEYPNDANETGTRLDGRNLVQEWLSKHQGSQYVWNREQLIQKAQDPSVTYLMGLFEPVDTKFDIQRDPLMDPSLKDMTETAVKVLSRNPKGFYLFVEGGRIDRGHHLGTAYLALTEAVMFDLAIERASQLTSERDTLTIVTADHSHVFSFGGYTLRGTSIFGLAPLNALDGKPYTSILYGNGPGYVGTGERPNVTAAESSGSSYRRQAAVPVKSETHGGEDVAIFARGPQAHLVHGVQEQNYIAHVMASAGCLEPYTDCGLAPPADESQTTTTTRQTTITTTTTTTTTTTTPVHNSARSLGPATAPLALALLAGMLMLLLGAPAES
Voltage-dependent T-type calcium channel subunit alpha-1H, sequence (O95180 whole entry): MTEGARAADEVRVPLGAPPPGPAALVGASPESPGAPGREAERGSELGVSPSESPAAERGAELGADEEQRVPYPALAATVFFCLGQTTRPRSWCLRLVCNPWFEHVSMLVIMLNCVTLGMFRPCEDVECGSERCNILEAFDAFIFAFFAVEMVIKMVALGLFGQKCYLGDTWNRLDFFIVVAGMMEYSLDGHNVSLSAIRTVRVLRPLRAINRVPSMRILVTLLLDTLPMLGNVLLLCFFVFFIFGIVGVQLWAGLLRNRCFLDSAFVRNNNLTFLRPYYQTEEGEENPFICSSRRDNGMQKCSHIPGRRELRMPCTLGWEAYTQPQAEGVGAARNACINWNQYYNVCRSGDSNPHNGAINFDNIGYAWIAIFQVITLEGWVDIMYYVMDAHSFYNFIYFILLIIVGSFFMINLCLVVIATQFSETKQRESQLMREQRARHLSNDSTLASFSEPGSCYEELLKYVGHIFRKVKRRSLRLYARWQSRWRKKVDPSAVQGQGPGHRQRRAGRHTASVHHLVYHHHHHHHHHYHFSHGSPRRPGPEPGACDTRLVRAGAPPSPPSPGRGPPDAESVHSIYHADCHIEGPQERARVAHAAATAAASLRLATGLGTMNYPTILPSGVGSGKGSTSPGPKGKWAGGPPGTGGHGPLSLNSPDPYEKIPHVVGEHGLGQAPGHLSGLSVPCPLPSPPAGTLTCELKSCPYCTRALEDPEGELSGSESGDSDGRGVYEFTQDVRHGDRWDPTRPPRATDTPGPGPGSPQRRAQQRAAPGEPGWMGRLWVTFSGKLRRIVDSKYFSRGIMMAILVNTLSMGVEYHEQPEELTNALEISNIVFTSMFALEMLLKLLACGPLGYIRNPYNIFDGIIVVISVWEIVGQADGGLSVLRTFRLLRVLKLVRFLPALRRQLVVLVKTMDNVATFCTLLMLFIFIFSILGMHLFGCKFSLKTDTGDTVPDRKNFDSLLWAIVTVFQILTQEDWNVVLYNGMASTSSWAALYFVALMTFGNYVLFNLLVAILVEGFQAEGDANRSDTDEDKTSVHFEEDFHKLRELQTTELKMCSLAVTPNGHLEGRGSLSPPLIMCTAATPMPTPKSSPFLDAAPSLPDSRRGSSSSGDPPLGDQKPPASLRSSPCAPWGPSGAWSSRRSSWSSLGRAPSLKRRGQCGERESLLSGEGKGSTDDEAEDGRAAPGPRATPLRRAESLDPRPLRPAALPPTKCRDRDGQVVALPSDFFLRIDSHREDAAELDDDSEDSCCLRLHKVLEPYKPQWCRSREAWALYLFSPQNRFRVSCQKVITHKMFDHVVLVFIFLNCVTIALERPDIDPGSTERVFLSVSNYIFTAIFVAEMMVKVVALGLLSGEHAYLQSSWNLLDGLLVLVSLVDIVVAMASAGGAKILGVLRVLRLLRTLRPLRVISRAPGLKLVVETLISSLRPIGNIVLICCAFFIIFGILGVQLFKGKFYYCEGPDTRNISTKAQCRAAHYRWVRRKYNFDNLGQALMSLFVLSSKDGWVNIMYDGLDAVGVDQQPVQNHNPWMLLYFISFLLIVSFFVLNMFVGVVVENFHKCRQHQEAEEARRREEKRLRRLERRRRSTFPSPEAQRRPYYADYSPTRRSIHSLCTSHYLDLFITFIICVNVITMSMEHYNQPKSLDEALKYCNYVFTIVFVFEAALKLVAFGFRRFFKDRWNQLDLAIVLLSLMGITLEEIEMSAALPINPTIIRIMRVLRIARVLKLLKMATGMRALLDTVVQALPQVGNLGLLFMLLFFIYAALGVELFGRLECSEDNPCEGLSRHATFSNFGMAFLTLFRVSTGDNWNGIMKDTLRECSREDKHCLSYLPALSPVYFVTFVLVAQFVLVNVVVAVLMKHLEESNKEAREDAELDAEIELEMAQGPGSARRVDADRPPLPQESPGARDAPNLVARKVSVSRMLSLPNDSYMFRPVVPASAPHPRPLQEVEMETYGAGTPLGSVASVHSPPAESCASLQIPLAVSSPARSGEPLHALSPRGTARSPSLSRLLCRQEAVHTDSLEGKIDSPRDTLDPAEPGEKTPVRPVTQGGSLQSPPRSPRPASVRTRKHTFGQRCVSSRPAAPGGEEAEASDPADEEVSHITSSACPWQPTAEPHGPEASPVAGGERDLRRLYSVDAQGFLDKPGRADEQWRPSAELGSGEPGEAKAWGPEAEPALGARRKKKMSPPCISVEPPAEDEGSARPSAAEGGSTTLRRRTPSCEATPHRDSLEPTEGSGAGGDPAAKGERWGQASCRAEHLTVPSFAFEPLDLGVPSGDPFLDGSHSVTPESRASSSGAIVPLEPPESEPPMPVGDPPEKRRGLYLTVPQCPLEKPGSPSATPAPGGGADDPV
Lysine-specific demethylase 4A, sequence (O75164 whole entry): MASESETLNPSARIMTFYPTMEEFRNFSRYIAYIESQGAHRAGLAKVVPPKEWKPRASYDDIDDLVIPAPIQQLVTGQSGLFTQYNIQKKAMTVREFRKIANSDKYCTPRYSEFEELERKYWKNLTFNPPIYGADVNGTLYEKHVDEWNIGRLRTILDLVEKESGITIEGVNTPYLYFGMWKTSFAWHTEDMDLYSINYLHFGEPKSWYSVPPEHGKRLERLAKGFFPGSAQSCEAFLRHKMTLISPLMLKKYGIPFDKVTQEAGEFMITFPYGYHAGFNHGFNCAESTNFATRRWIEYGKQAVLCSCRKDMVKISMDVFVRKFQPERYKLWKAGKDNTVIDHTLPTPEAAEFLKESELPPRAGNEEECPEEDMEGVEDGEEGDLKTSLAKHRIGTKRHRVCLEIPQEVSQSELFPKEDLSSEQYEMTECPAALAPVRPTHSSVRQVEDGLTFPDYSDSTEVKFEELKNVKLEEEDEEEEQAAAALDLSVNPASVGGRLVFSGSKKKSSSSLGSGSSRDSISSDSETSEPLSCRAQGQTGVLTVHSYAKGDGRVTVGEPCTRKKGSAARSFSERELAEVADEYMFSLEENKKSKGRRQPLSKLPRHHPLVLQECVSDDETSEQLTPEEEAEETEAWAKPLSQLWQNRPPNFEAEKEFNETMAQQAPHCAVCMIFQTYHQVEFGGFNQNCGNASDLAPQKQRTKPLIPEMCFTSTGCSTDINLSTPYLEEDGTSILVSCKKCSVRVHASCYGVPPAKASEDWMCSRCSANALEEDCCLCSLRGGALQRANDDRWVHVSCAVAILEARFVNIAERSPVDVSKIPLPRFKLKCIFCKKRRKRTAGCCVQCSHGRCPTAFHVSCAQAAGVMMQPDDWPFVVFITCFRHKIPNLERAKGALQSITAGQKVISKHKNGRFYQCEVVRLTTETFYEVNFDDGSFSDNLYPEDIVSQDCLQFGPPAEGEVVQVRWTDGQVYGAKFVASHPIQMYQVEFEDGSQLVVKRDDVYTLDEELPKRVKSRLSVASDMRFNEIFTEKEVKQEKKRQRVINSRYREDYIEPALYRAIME
Cytochrome P450 2C19, sequence (P33261 whole entry): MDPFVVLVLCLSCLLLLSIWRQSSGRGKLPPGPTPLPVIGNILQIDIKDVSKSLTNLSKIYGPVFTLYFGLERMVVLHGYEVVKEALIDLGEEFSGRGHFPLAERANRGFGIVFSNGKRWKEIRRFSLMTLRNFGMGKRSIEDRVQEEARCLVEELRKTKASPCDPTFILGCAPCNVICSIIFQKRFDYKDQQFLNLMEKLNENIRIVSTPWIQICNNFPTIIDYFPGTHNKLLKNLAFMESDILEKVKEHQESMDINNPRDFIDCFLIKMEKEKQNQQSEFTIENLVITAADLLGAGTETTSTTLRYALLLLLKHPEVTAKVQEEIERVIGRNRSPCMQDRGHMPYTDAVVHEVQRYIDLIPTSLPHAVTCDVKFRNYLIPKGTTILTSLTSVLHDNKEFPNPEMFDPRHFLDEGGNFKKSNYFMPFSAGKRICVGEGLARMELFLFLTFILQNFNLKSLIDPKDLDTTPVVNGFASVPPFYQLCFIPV

In general, IC50 refers to the concentration that gives 50% inhibition. For the compound `CCN(CC)c1ccc(N=Nc2nn(C)c(C)c2[N+](=O)[O-])cc1`, the IC50 is 35.3 µM (active) in [1]; 52.5 µM (active) in data set [2]; 13 µM (inactive) in data set [3]; 47.1 µM (active) in [4]; > 122 µM (inactive) in data set [5].
The term EC50 denotes the concentration giving half of the maximal effect. In general, AC50 refers to the concentration at which the activity in the assay is half-maximal. Regarding `CCOC(=O)Cc1csc(NC(=O)c2sc3nc4ccc(CC)cc4cc3c2N)n1`, the EC50 in [6] is on record as > 195 µM (not active). In addition, the results for the AC50 in data set [7], in data set [8] and in [9] were 0.2 µM (inconclusive), 35.5 µM (inconclusive) and “inconclusive”, respectively.
Regarding `CCC(C)CN1CC2CCC(NC(=O)c3cc(Cl)cc(Cl)c3)C2C1` (configuration not stated), the EC50 in data set [10] was 9.4 µM (active).
Turning to `CCc1ccc(/C=N/Nc2[nH]cnc3ncnc2-3)cc1`, the EC50 in [11] was > 100 µM (inactive); in data set [12], 6.62 µM (active); in data set [13] it was 12.5 µM (active); in [14] it was 17.7 µM (active). Also, the IC50 is > 67.5 µM (inactive) in data set [15] and 2.09 µM (active) in [16].
Take `Cc1cc(C(=O)Nc2sc3c(c2C#N)CCC(C)C3)no1` (configuration not stated): the AC50 in data set [17] is > 60 µM (inactive).
